Laboratory results: patent publication US9216170B2, “Combination therapy for proliferative disorders” (Hoffman-La Roche Inc., priority 2012, dated 2015)
Read-outs that look alike come from different tables or passages of the source.

Assays:
RKO cell xenografts [1] = assay: Assessment of survival / increase in life span (ILS) in RKO xenograft-bearing mice; format: in vivo; settings: for % Increased Life Span: Table 3; for % ILS: Table 4; for 50% Treatment Days: median survival day
Method: (§1) Mice were implanted with RKO cell xenografts. The mice, cell line used, and implantation are described below.
(§2) RKO cells (American Type Culture Collection, Rockville, Md.) were maintained in DMEM media+10% (v/v) heat-inactivated FBS+1% (v/v) […] L-glutamine. Each mouse received 2×10^6 cells in a total volume of 0.2 ml. Cells were implanted subcutaneously in the right flank of each mouse using a 1 cc syringe and a 26 gauge needle.
(§3) RKO xenograft-containing mice were randomized into groups of 10 mice each according to tumor volume so that all groups had similar starting mean tumor volumes of about 145 mm^3.
(§4) 10 groups of mice were used.
(§5) Treatment duration was 2 weeks.
For survival assessment, results are plotted as the percentage survival against days after tumor implant (GraphPad Prism, version 5.03). An individual tumor volume of 1500 mm^3 was used as a surrogate for death. The % ILS was calculated as 100×[(median survival day of treated group−median survival day of control group)/median survival day of control group]. Median survival was determined utilizing Kaplan Meier survival analysis. Survival in treated groups was compared with the vehicle group by Log-rank (Mantel-Cox) Test (GraphPad Prism, version 4.3, La Jolla, Calif.). Differences between groups were considered significant when the probability value (p) was ≦0.05.

RKO cell xenografts [2] = assay: Tumor growth inhibition in RKO xenograft-bearing mice; format: in vivo; settings: for Mean Tumor Volume (mm^3) Start Study DAY: 14: baseline; for Full Regression / Partial Regression: number of animals
Method: as §1, §2, §3, §4, §5
Efficacy data was graphically represented as the mean tumor volume±standard error of the mean (SEM). Tumor volumes of treated groups were presented as percentages of tumor volumes of the control groups (% T/C), using the formula: 100×((T−T0)/(C−C0)), where T represented mean tumor volume of a treated group on a specific day during the experiment, T0 represented mean tumor volume of the same […] group on the first day of treatment; C represented mean tumor volume of a control group on the specific day during the experiment, and C0 represented mean tumor volume of the same […] group on the first day of treatment.
Tumor volume (in cubic millimeters) was calculated using the ellipsoid formula: (D×(d2))/2 where ‘D’ represents the large diameter of the tumor, and ‘d’ represents the small diameter.
Statistical analysis of treated groups was compared with the vehicle group with Mann-Whitney Rank Sum Test, comparisons between groups were analyzed by one-way ANOVA, and post-hoc Bonferroni t-test (GraphPad Prism, version 5.03). Differences between groups were considered to be significant when the probability value (p) was ≦0.05.

[3] = Compound II 200 mg/kg qweekly po
[4] = Compound III 100 mg/kg qweekly po

## CCCS(=O)(=O)Nc1ccc(F)c(C(=O)c2c[nH]c3ncc(-c4ccc(Cl)cc4)cc23)c1F [vemurafenib, Propane-1-sulfonic acid {3-[5-(4-chlorophenyl)-1H-pyrrolo[2,3-b]pyridine-3-carbonyl-2,4-difluoro-phenyl]-amide}, reference compound]
RKO cell xenografts [1]; vemurafenib 50 mg/kg bid po
  % Increased Life Span: 0%
RKO cell xenografts [1]; vemurafenib 50 mg/kg
  % ILS: 0%
  50% Treatment Days: 24 days
Vemurafenib 50 mg/kg bid po
  # of animals ≧ 20% BWL: 0
  % Change in Body Weight at end of Study Day 28: 4.6%
  Max % Weight Gain: 7.5%
  Max % Weight Loss: 2.8%
  Mortality: 0
RKO cell xenografts [2]; vemurafenib 50 mg/kg bid po
  % Inhibition end of study Day: 28: 7%
  % T/C end of study Day: 28: 93%
  Mean Tumor Volume (mm^3) End Study DAY: 29: 1643.76 mm^3
  Mean Tumor Volume (mm^3) Start Study DAY: 14: 142.50 mm^3
  Full Regression: 0
  Partial Regression: 0

## CCOc1cc(C(C)(C)C)ccc1C1=N[C@@](C)(c2ccc(Cl)cc2)[C@@](C)(c2ccc(Cl)cc2)N1C(=O)N1CCN(CCCS(C)(=O)=O)CC1 [Compound II]
RKO cell xenografts [1]; Compound II 100 mg/kg qd po
  % Increased Life Span: 29%
RKO cell xenografts [1]; [3]
  % Increased Life Span: 0%
RKO cell xenografts [1]; Compound II 100 mg/kg
  % ILS: 29%
  50% Treatment Days: 31 days
RKO cell xenografts [1]; Compound II 200 mg/kg
  % ILS: 0%
  50% Treatment Days: 24 days
Compound II 100 mg/kg qd po
  Reason for mortality/morbidity: Technical
RKO cell xenografts [2]; Compound II 100 mg/kg qd po
  % Inhibition end of study Day: 28: 64%
  % T/C end of study Day: 28: 36%
  Mean Tumor Volume (mm^3) End Study DAY: 29: 726.30 mm^3
  Mean Tumor Volume (mm^3) Start Study DAY: 14: 146.39 mm^3
  Full Regression: 0
  Partial Regression: 0
RKO cell xenografts [2]; [3]
  % Inhibition end of study Day: 28: 18%
  % T/C end of study Day: 28: 82%
  Mean Tumor Volume (mm^3) End Study DAY: 29: 1466.93 mm^3
  Mean Tumor Volume (mm^3) Start Study DAY: 14: 141.33 mm^3
  Full Regression: 0
  Partial Regression: 0

## COc1cc(C(=O)O)ccc1NC(=O)[C@@H]1N[C@@H](CC(C)(C)C)[C@](C#N)(c2ccc(Cl)cc2F)[C@H]1c1cccc(Cl)c1F [Compound III]
RKO cell xenografts [1]; Compound III 80 mg/kg qdx5 po
  % Increased Life Span: 29%
RKO cell xenografts [1]; [4]
  % Increased Life Span: 29%
RKO cell xenografts [1]; Compound III 80 mg/kg
  % ILS: 29%
  50% Treatment Days: 31 days
RKO cell xenografts [1]; Compound III 100 mg/kg
  % ILS: 29%
  50% Treatment Days: 31 days
Compound III 80 mg/kg qdx5 po
  # of animals ≧ 20% BWL: 0
  % Change in Body Weight at end of Study Day 28: 5.3%
  Max % Weight Gain: 7.4%
  Max % Weight Loss: 5.3%
  Mortality: 0
[4]
  # of animals ≧ 20% BWL: 0
  % Change in Body Weight at end of Study Day 28: 6.6%
  Max % Weight Gain: 7.5%
  Max % Weight Loss: 4.7%
  Mortality: 0
RKO cell xenografts [2]; Compound III 80 mg/kg qdx5 po
  % Inhibition end of study Day: 28: 65%
  % T/C end of study Day: 28: 35%
  Mean Tumor Volume (mm^3) End Study DAY: 29: 705.24 mm^3
  Mean Tumor Volume (mm^3) Start Study DAY: 14: 143.00 mm^3
  Full Regression: 0
  Partial Regression: 0
RKO cell xenografts [2]; [4]
  % Inhibition end of study Day: 28: 50%
  % T/C end of study Day: 28: 50%
  Mean Tumor Volume (mm^3) End Study DAY: 29: 952.64 mm^3
  Mean Tumor Volume (mm^3) Start Study DAY: 14: 147.78 mm^3
  Full Regression: 0
  Partial Regression: 0
